Consider five compounds from US5580870A, “Quinazoline derivatives” (Zeneca Limited, priority 1992, dated 1996).

pIC50: −log10 of the molar value. Where two headings read alike, the source gives them in different places.

For one data set, the system named is KB cells. The data set can be described thus: Test (b): in vitro inhibition of growth of human naso-pharyngeal cancer cell line KB (EGF, MTT). In kind it is cell-based. As to conditions: 72 h, read-out: IC50 in Test (b), inhibition of KB cell growth. As to the method:
(b) An in vitro assay which determines the ability of a test compound to inhibit the growth of the human naso-pharyngeal cancer cell line KB.
KB cells were seeded into wells at a density of 1×10^4 -1.5×10^4 cells per well and grown for 24 hours in DMEM supplemented with 5% FCS (charcoal-stripped). Cell growth was determined after incubation for 3 days by the extent of metabolism of MTT tetrazolium dye to furnish a bluish colour. Cell growth was then determined in the presence of EGF (10 ng/ml) or in the presence of EGF (10 ng/ml) and a test compound at a range of concentrations. An IC50 value could then be calculated.

A further data set relates to liver hepatocyte growth. The data set can be described thus: Test (c): in vivo inhibition of TGFα-stimulated liver hepatocyte growth in male rats (BrdU uptake). Also on record: species or system rat. The note with it: for ED50: Rattus norvegicus, Hepatocyte, read-out: ED50 in Test (c), inhibition of liver hepatocyte proliferation.
The next data set deals with T1, receptor tyrosine kinase (Homo sapiens, UniProt P00533).
T1 construct: The supernatant, containing solubilised receptor tyrosine kinase, was stored in liquid nitrogen; endogenous in cells; host or cells: A-431 cells (human vulval carcinoma), solubilised membrane fraction
The data set can be described thus: Test (a): in vitro receptor tyrosine kinase inhibition (enzyme from A-431 cells, 32P-ATP/peptide phosphorylation, with EGF). The data set is classed as biochemical. As to the method:
A-431 cells were grown to confluence using Dulbecco's modified Eagle's medium (DMEM) containing 5% fetal calf serum (FCS). The obtained cells were homogenised in a hypotonic borate/EDTA buffer at pH 10.1. The homogenate was centrifuged at 400 g for 10 minutes at 0°-4° C. The supernatant was centrifuged at 25,000 g for 30 minutes at 0°-4° C. The pelleted material was suspended in 30 mM Hepes buffer at pH 7.4 containing 5% glycerol, 4 mM benzamidine and 1% Triton X-100, stirred for 1 hour at 0°-4° C., and recentrifuged at 100,000 g for 1 hour at 0°-4° C. The supernatant, containing solubilised receptor tyrosine kinase, was stored in liquid nitrogen.
For test purposes 40 μl of the enzyme solution so obtained was added to a mixture of 400 μl of a mixture of 150 mM Hepes buffer at pH 7.4, 500 μM sodium orthovanadate, 0.1% Triton X-100, 10% glycerol, 200 μl water, 80 μl of 25 mM DTT and 80 μl of a mixture of 12.5 mM manganese chloride, 125 mM magnesium chloride and distilled water. There was thus obtained the test enzyme solution. […]
The test compound/EGF mixture solution (5 μl) was added to the test enzyme solution (10 μl) and the mixture was incubated at 0°-4° C. for 30 minutes. […] Radioactivity present in the filter paper was measured using a liquid scintillation counter (Sequence A). […]
Receptor tyrosine kinase inhibition was calculated as follows: [formula]

Data set [1] relates to human mammary carcinoma which expresses epidermal growth factor (EGF) receptor tyrosine kinase. As to conditions: athymic nude mice; Toi et al., 1990; cited from earlier work.
The test system of data set [2] is carcinoma which does not express EGF receptor tyrosine kinase. As to conditions: Toi et al., 1990; cited from earlier work.
Setting [3] is: male rats, usually oral, TGFα 400 μg/kg subcutaneously, BrdU uptake.

T1 sequence (P00533 25-1210): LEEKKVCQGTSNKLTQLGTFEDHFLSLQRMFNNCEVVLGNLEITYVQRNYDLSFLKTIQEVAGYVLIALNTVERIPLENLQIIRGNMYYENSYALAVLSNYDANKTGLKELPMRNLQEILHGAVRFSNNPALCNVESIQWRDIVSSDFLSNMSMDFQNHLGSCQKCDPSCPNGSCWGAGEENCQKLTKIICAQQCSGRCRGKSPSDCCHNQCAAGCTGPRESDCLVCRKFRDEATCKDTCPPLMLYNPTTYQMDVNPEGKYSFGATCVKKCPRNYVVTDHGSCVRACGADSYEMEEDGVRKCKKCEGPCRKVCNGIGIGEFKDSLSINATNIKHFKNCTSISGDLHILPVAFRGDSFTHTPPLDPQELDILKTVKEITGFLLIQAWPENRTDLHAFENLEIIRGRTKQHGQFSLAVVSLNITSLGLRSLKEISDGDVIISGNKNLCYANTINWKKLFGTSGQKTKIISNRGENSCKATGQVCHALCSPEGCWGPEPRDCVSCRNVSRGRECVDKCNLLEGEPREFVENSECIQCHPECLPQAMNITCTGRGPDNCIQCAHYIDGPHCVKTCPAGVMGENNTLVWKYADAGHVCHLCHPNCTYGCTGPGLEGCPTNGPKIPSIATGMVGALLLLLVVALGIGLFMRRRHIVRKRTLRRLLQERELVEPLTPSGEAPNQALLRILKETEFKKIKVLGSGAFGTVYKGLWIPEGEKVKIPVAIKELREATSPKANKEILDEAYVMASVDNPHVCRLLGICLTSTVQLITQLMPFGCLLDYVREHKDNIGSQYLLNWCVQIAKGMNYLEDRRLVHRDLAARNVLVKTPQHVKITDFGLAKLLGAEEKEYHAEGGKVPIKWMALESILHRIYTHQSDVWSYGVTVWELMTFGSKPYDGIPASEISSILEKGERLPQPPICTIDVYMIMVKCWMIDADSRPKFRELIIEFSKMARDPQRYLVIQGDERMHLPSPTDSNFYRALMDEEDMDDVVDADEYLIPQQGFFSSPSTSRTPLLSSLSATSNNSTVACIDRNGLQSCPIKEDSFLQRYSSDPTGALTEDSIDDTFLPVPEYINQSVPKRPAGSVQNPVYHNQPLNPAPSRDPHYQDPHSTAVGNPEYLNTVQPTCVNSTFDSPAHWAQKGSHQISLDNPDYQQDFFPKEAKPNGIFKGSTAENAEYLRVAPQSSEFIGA
T1 sequence (P01133 971-1023 partner limits assumed): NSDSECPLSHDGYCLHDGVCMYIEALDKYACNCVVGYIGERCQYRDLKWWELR
Procedure for liver hepatocyte growth: (c) An in vivo assay in a group of male rats which determines the ability of a test compound (usually administered orally as a ball-milled suspension in 0.5% polysorbate) to inhibit the stimulation of liver hepatocyte growth caused by the administration of the growth factor TGFα (400 μg/kg subcutaneously, usually dosed twice, 3 and 7 hours respectively after the administration of the test compound).
Cell-growth in the control and test animals is determined as follows:
On the morning of the day after the dosing of the test compound (or 0.5% polysorbate in the control group), the animals are dosed with bromodeoxyuridine (BrdU; 100 mg/kg intraperitoneally). The animals are killed four hours later and the livers are excised. […] Further tests were carried out using a range of doses of the test compounds to allow the calculation of an approximate ED50 value for the inhibition of liver hepatocyte proliferation as determined by inhibition of the uptake of BrdU.

What is called pIC50 is −log10 of the IC50, conventionally taken in molar units. Regarding `COc1cc2ncnc(Nc3ccc4c(c3)CCC4)c2cc1OC` [6,7-dimethoxy-4-(5-indanylamino)quinazoline], the negative logarithm of the IC50 (pIC50) with KB cells is 6.19. Further, the ED50 with liver hepatocyte growth (po) fell in the range of 1 to 5 mg/kg.

Take `COc1cc2ncnc(Nc3ccc4[nH]ccc4c3)c2cc1OC` [6,7-dimethoxy-4-(5-indolylamino)quinazoline]: the pIC50 on receptor tyrosine kinase was 9.00; in the data set with KB cells (EGF (10 ng/ml), 3 days, MTT), 6.40. For the same compound, the ED50 in the data set on liver hepatocyte growth (setting [3]) lay in the range of 1 to 5 mg/kg.

Turning to `COc1cc2ncnc(Nc3cccc4ncccc34)c2cc1OC` [6,7-dimethoxy-4-(5-quinolylamino)quinazoline], the negative logarithm of the IC50 (pIC50) on receptor tyrosine kinase was 7.22; with KB cells (EGF (10 ng/ml), 3 days, MTT), 5.74. For the same compound, the ED50 in the data set on liver hepatocyte growth (setting [3]) was roughly 2 mg/kg.

Consider `O=CN/C=C/c1cc(O)ccc1O` [erbstatin], for which, in data set [1], the “effect on growth of transplanted human mammary carcinoma expressing EGF receptor tyrosine kinase” value was “specifically attenuates the growth”. In addition, the “effect on growth of another carcinoma which does not express EGF receptor tyrosine kinase” value in data set [2] is “without effect”.

As to “TGFα: the growth factor TGFα [reference compound]”, in the data set with liver hepatocyte growth (control group of rats, TGFα 400 μg/kg subcutaneously, on average), the “stimulation of liver hepatocyte growth” value came to 5 fold.
